Source: patent US11547687B2, “Neprilysin inhibitors” (THERAVANCE BIOPHARMA R&D IP, LLC, priority 2011, dated 2023)

Target: human NEP (Homo sapiens (Human), UniProt P08473)
Assay: In vitro enzyme inhibition assay at human NEP (Assay 1)
Type: biochemical
Conditions: pKi values at human NEP, reported as ranges

SMILES: CC(C)COC(=O)C(=O)N[C@H](Cc1ccc(-c2cc(Cl)ccc2Cl)cc1)C[C@@H](O)C(=O)O [Example 3D, (2R,4R)-5-(2′,5′-Dichlorobiphenyl-4-yl)-2-hydroxy-4-(isobutoxyoxalylamino)-pentanoic Acid]
- pKi: ≥9
